Results published in patent publication US8017350B2, “Glimepiride- and insulin-induced glycosylphosphatidylinositol-specific phospholipase C regulation” (Sanofi-Aventis Deutschland GmbH, priority 2004, dated 2011).

Target: T1, Lipoprotein lipase (LPL) from bovine milk (Bos taurus, UniProt P11151)
T1 construct: purchased SigmalAldrich (Deisenhofen, Germany); host or cells: bovine milk
Assay: lipoprotein lipase assay (radiolabeled triolein emulsion)
Type: biochemical
Settings: 50 μM
Description: Hormone-sensitive lipase (HSL) and lipoprotein lipase (LPL) were measured using a radiolabeled triolein droplet emulsion as described in “Vertesy et al., (2002) Journal Antibiotics 55:480-494”. Pancreatic lipase (PL) was determined by incubation of 0.25 mmol tributyrin in 2 ml of 5 mM Tris/HCl (pH 6.5), 6 mM sodium taurodeoxycholate, 150 mM NaCl, 1 mM CaCl2 with porcine PL and colipase in the same buffer using a recording pH stat (stirring at 1000 rpm at 25° C.) with the pH adjusted to 6.5. PC-PLC was assayed by incubation of 0.2 ml of 10 mM dipalmitoyllecithin, 0.1 ml of 10 mM SDC and 0.1 ml of 0.03 M CaCl2 with bacterial PC-PLC (in 50 mM Tris/HCl, pH 7.5, 0.1% BSA) for 10 min at 37° C. The reaction was terminated by addition of 0.1 ml of 50% TCA and subsequently of 2.5 ml of […]. After centrifugation (1500×g, 15 min), 0.2-ml portions of the upper methanol/water phase (˜1.33 ml) were removed, supplemented with 0.5 ml of 60% HClO4, then heated at 170° C. for 1 h and finally analyzed for inorganic phosphate. Mammalian PI-PLC was measured by incubation of 0.1 ml of 10 mM PI, 0.1 ml of 0.8% sodium deoxycholate, 0.1% BSA, 0.2 ml of 100 mM sodium borate (pH 7.5) and rat liver PI-PLC for 20 min at 37° C. The reaction was terminated and further processed as described for the PC-PLC. […] Radioactive phosphatidic acid was detected by phosphorimaging. […]

T1 sequence (P11151 29-478): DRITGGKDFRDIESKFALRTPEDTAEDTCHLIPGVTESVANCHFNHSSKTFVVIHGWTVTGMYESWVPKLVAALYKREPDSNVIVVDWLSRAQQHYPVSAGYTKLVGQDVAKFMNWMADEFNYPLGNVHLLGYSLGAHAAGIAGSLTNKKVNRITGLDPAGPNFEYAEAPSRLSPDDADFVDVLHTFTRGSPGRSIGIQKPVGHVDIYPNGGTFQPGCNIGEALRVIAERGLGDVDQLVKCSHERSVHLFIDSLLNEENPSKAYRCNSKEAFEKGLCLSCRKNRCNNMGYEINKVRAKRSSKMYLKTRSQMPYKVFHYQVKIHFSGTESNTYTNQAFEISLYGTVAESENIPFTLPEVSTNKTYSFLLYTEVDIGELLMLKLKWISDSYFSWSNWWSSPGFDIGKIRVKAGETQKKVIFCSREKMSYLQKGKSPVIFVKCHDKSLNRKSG

In the case of `CCCCCCCCCCCCP1(=O)O[C@@H]2[C@H](O)[C@@H](O)[C@H](O)[C@@H](O)[C@@H]2O1` (stereo partly shown) [GPI-2350, myo-inositol-1,2-cyclo-dodecylphosphonic acid], the “effect on LPL” value is reported as “not significantly affected”.
